# According to patent US20230085307A1, “PYRIDAZINONE COMPOUND AND HERBICIDE” (NISSAN CHEMICAL CORPORATION, priority 2019, published 2023):
# Experiments:
# late watergrass [1] = test: Test Example 1: herbicidal activity, application before weed generation under submerged conditions (Table 16, symbol A); assay type: in vivo, late watergrass (Echinochloa oryzicola); details: amount of applied herbicide 320 g/ha
# In short: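 Submerged Wagner pots (alluvial soil, 4 cm water) sown with weed seeds and planted with 2.5-leaf rice seedlings; emulsifiable concentrate diluted in water applied to water surface on sowing day. Held in greenhouse at 25-30 °C; injury scored 0-5 by herbicidal rate after three weeks.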
# late watergrass [2] = test: Test Example 2: herbicidal activity, application during weed generation under submerged conditions (Table 17, symbol A); assay type: in vivo, late watergrass (Echinochloa oryzicola); details: for herbicidal effect rating, A: late watergrass: AAH 320 g/ha, application during weed generation, submerged conditions; for herbicidal effect grade, A: late watergrass: application during weed generation under submerged conditions, amount of applied herbicide 320 g/ha
# In short: (§1)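 Wagner pot, alluvial soil, 4 cm flood; mixed sowing of all species; greenhouse 25° C.–30° C. Emulsifiable formulation, water-diluted to predetermined dose, applied to paddy water at 1–2 leaf stage. Effect rated at 3 wk using the earlier test's scoring criteria.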
# Japanese bulrush = test: Test Example 2: herbicidal activity, application during weed generation under submerged conditions (Table 17, symbol B); assay type: in vivo, Japanese bulrush (Schoenoplectus juncoides); details: for herbicidal effect rating, B: Japanese bulrush: AAH 320 g/ha, application during weed generation, submerged conditions; for herbicidal effect grade, B: Japanese bulrush: application during weed generation under submerged conditions, amount of applied herbicide 320 g/ha
# In short: as §1
# oval-leafed pondweed = test: Test Example 2: herbicidal activity, application during weed generation under submerged conditions (Table 17, symbol C); assay type: in vivo, oval-leafed pondweed (Monochoria vaginalis); details: for herbicidal effect rating, C: oval-leafed pondweed: AAH 320 g/ha, application during weed generation, submerged conditions; for herbicidal effect grade, C: oval-leafed pondweed: application during weed generation under submerged conditions, amount of applied herbicide 320 g/ha
# In short: as §1
# barnyard grass = test: Test Example 3: herbicidal effect by foliage application, Wagner pot (Table 18, symbol H); assay type: in vivo, barnyard grass (Echinochloa crus-galli); details: amount of applied herbicide 320 g/ha
# In short: (§2)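 Plants were sown in alluvial soil held under 0.1–0.5 cm standing water and grown 14 days in a greenhouse at 25–30 °C. An emulsifiable formulation, water-diluted to the set dose, was then sprayed onto the foliage, and effects were scored three weeks later using previously defined criteria.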
# rice flat sedge = test: Test Example 3: herbicidal effect by foliage application, Wagner pot (Table 18, symbol E); assay type: in vivo, rice flat sedge (Cyperus iria); details: amount of applied herbicide 320 g/ha
# In short: as §2
# green foxtail [3] = test: Test Example 4: herbicidal effect by soil treatment (Table 19, symbol G); assay type: in vivo, green foxtail (Setaria viridis); details: amount of applied herbicide 320 g/ha
# In short: (§3)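 Herbicidal effect was rated 3 weeks after treatment, using the scoring criteria of an earlier test. The compound, formulated as an emulsion and diluted in water to a set herbicide amount, had been sprayed uniformly on soil over freshly sown seeds. Growth took place in a greenhouse at 25° C. to 30° C.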
# Italian ryegrass [4] = test: Test Example 4: herbicidal effect by soil treatment (Table 19, symbol K); assay type: in vivo, Italian ryegrass (Lolium multiflorum); details: amount of applied herbicide 320 g/ha
# In short: as §3
# windgrass [5] = test: Test Example 4: herbicidal effect by soil treatment (Table 19, symbol L); assay type: in vivo, windgrass (Apera spica-venti); details: amount of applied herbicide 320 g/ha
# In short: as §3
# chickweed = test: Test Example 4: herbicidal effect by soil treatment (Table 19, symbol P); assay type: in vivo, common chickweed (Stellaria media); details: amount of applied herbicide 320 g/ha
# In short: as §3
# persian speedwell [6] = test: Test Example 4: herbicidal effect by soil treatment (Table 19, symbol R); assay type: in vivo, Persian speedwell (Veronica persica); details: amount of applied herbicide 320 g/ha
# In short: as §3
# southern crabgrass = test: Test Example 5: herbicidal effect by foliage application, plastic box (Table 20, symbol F); assay type: in vivo, southern crabgrass (Digitaria ciliaris); details: foliage application, 320 g/ha; for F (southern crabgrass) herbicidal effect grade: evaluated 3 weeks after application
# In short: (§4)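 Foliar spray test: emulsion formulation diluted in water to a set application rate, sprayed onto 14-day-old plants raised in diluvial soil at 25° C to 30° C under glass. Both herbicidal effect and crop effect rated visually three weeks later.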
# green foxtail [7] = test: Test Example 5: herbicidal effect by foliage application, plastic box (Table 20, symbol G); assay type: in vivo, green foxtail (Setaria viridis); details: foliage application, 320 g/ha; for G (green foxtail) herbicidal effect grade: evaluated 3 weeks after application
# In short: as §4
# Italian ryegrass [8] = test: Test Example 5: herbicidal effect by foliage application, plastic box (Table 20, symbol K); assay type: in vivo, Italian ryegrass (Lolium multiflorum); details: foliage application, 320 g/ha; for K (Italian ryegrass) herbicidal effect grade: evaluated 3 weeks after application
# In short: as §4
# windgrass [9] = test: Test Example 5: herbicidal effect by foliage application, plastic box (Table 20, symbol L); assay type: in vivo, windgrass (Apera spica-venti); details: foliage application, 320 g/ha; for L (windgrass) herbicidal effect grade: evaluated 3 weeks after application
# In short: as §4
# lambsquarters = test: Test Example 5: herbicidal effect by foliage application, plastic box (Table 20, symbol O); assay type: in vivo, lambsquarters (Chenopodium album); details: foliage application, 320 g/ha; for O (lambsquarters) herbicidal effect grade: evaluated 3 weeks after application
# In short: as §4
# persian speedwell [10] = test: Test Example 5: herbicidal effect by foliage application, plastic box (Table 20, symbol R); assay type: in vivo, Persian speedwell (Veronica persica); details: foliage application, 320 g/ha; for R (persian speedwell) herbicidal effect grade: evaluated 3 weeks after application
# In short: as §4
SMILES,"Herbicidal effect, A: late watergrass (late watergrass [1])","herbicidal effect rating, A: late watergrass (late watergrass [2])","herbicidal effect rating, B: Japanese bulrush (Japanese bulrush)","herbicidal effect rating, C: oval-leafed pondweed (oval-leafed pondweed)","Herbicidal effect on H (barnyard grass), foliage application (barnyard grass)","Herbicidal effect on E (rice flat sedge), foliage application (rice flat sedge)","G: green foxtail, herbicidal effect grade (green foxtail [3])","K: Italian ryegrass, herbicidal effect grade (Italian ryegrass [4])","L: windgrass, herbicidal effect grade (windgrass [5])","P: chickweed, herbicidal effect grade (chickweed)","R: persian speedwell, herbicidal effect grade (persian speedwell [6])",F (southern crabgrass) herbicidal effect grade (southern crabgrass),G (green foxtail) herbicidal effect grade (green foxtail [7]),K (Italian ryegrass) herbicidal effect grade (Italian ryegrass [8]),L (windgrass) herbicidal effect grade (windgrass [9]),O (lambsquarters) herbicidal effect grade (lambsquarters),R (persian speedwell) herbicidal effect grade (persian speedwell [10]),"herbicidal effect grade, A: late watergrass (late watergrass [2])","herbicidal effect grade, B: Japanese bulrush (Japanese bulrush)","herbicidal effect grade, C: oval-leafed pondweed (oval-leafed pondweed)",further results
CCCOc1ccc(-c2oc3ccc(F)cc3c2-c2c(O)c(C)nn(C)c2=O)cc1 [9-023],5 (Herbicidal rate of 90% or more (almost completely withered)),5 (Herbicidal rate of 90% or more (almost completely withered)),3 (Herbicidal rate of 40% or more and less than 70%),5 (Herbicidal rate of 90% or more (almost completely withered)),5 (Herbicidal rate of 90% or more (almost completely withered)),5 (Herbicidal rate of 90% or more (almost completely withered)),5 (Herbicidal rate of 90% or more (almost completely withered)),5 (Herbicidal rate of 90% or more (almost completely withered)),3 (Herbicidal rate of 40% or more and less than 70%),0 (Herbicidal rate of 5% or less (almost no effect)),4 (Herbicidal rate of 70% or more and less than 90%),,,,,,,,,,herbicidal effect on southern crabgrass (F) (southern crabgrass; three weeks after application): 4 (Herbicidal rate of 70% or more and less than 90%); herbicidal effect on green foxtail (G) (green foxtail [7]; three weeks after application): 5 (Herbicidal rate of 90% or more (almost completely withered)); herbicidal effect on Italian ryegrass (K) (Italian ryegrass [8]; three weeks after application): 5 (Herbicidal rate of 90% or more (almost completely withered)); herbicidal effect on windgrass (L) (windgrass [9]; three weeks after application): 4 (Herbicidal rate of 70% or more and less than 90%); herbicidal effect on lambsquarters (O) (lambsquarters; three weeks after application): 5 (Herbicidal rate of 90% or more (almost completely withered)); herbicidal effect on persian speedwell (R) (persian speedwell [10]; three weeks after application): 5 (Herbicidal rate of 90% or more (almost completely withered))
CCCOc1ccc(-c2oc3ccc(C)cc3c2-c2c(O)c(C)nn(C)c2=O)cc1 [9-049],5 (Herbicidal rate of 90% or more (almost completely withered)),5 (Herbicidal rate of 90% or more (almost completely withered)),4 (Herbicidal rate of 70% or more and less than 90%),4 (Herbicidal rate of 70% or more and less than 90%),5 (Herbicidal rate of 90% or more (almost completely withered)),3 (Herbicidal rate of 40% or more and less than 70%),4 (Herbicidal rate of 70% or more and less than 90%),5 (Herbicidal rate of 90% or more (almost completely withered)),0 (Herbicidal rate of 5% or less (almost no effect)),4 (Herbicidal rate of 70% or more and less than 90%),5 (Herbicidal rate of 90% or more (almost completely withered)),5 (Herbicidal rate of 90% or more (almost completely withered)),5 (Herbicidal rate of 90% or more (almost completely withered)),5 (Herbicidal rate of 90% or more (almost completely withered)),0 (Herbicidal rate of 5% or less (almost no effect)),5 (Herbicidal rate of 90% or more (almost completely withered)),5 (Herbicidal rate of 90% or more (almost completely withered)),,,,
CCCC(=O)Oc1c(C)nn(C)c(=O)c1-c1c(-c2ccc(SCC)cc2)oc2ccc(C)cc12 [9-058],5 (Herbicidal rate of 90% or more (almost completely withered)),,,,5 (Herbicidal rate of 90% or more (almost completely withered)),5 (Herbicidal rate of 90% or more (almost completely withered)),5 (Herbicidal rate of 90% or more (almost completely withered)),5 (Herbicidal rate of 90% or more (almost completely withered)),0 (Herbicidal rate of 5% or less (almost no effect)),3 (Herbicidal rate of 40% or more and less than 70%),5 (Herbicidal rate of 90% or more (almost completely withered)),4 (Herbicidal rate of 70% or more and less than 90%),5 (Herbicidal rate of 90% or more (almost completely withered)),5 (Herbicidal rate of 90% or more (almost completely withered)),0 (Herbicidal rate of 5% or less (almost no effect)),5 (Herbicidal rate of 90% or more (almost completely withered)),5 (Herbicidal rate of 90% or more (almost completely withered)),4 (Herbicidal rate of 70% or more and less than 90%),3 (Herbicidal rate of 40% or more and less than 70%),4 (Herbicidal rate of 70% or more and less than 90%),
Cc1ccc2oc(-c3ccc(SC(C)C)cc3)c(-c3c(O)c(C)nn(C)c3=O)c2c1 [9-059],5 (Herbicidal rate of 90% or more (almost completely withered)),,,,5 (Herbicidal rate of 90% or more (almost completely withered)),5 (Herbicidal rate of 90% or more (almost completely withered)),3 (Herbicidal rate of 40% or more and less than 70%),4 (Herbicidal rate of 70% or more and less than 90%),0 (Herbicidal rate of 5% or less (almost no effect)),5 (Herbicidal rate of 90% or more (almost completely withered)),5 (Herbicidal rate of 90% or more (almost completely withered)),2 (Herbicidal rate of 20% or more and less than 40%),5 (Herbicidal rate of 90% or more (almost completely withered)),5 (Herbicidal rate of 90% or more (almost completely withered)),1 (Herbicidal rate of 5% or more and less than 20%),5 (Herbicidal rate of 90% or more (almost completely withered)),5 (Herbicidal rate of 90% or more (almost completely withered)),4 (Herbicidal rate of 70% or more and less than 90%),3 (Herbicidal rate of 40% or more and less than 70%),4 (Herbicidal rate of 70% or more and less than 90%),
